Paper PMC9458217, “Synthesis and Biological Evaluation of Cassane Diterpene (5α)-Vuacapane-8(14), 9(11)-Diene and of Some Related Compounds” (Molecules, 2022)
≈ marks a conversion by molar mass, not a printed value. Where “and” joins values, the source holds several entries; their conditions need not be identical. Equal values may be shown once. Read-outs that look alike come from different tables or passages of the source.

Legend:
[1] = test system: RAW 264.7 monocyte/macrophage murine cells; test: MTT cytotoxicity on RAW 264.7 cells; assay type: cell-based; details: Mus musculus; for IC50: read-out: IC50
Protocol: MTT is transformed to formazan in cells with metabolism capacity (viable cells), as the number of viable cells is proportional to formazan concentration; this assay was used to determine the cytotoxicity of the compounds.
In all experiments, subconfluent monolayer cells were used.
The effect of compounds on the cell viability was determined by the MTT method (Sigma, St. Louis, MO, USA). The cytotoxicity of the compounds was detected by measuring the absorbance of MTT dye staining of cells with metabolism capacity. […] Finally, after 72 h, 100 μL of MTT solution (0.5 mg/mL) in 50% of PBS and 50% of the medium was added to each well. After 1.5 h of incubation, formazan was re-suspended in 100 μL of DMSO, and each concentration was tested in triplicate.
(§1) Experimental cytotoxicity data were fitted to a sigmoidal function (y = ymax/ (x/a)^−b) by non-linear regression. […] Similar analyses were performed to obtain the IC50 of NO production (IC50 NO). All shown data are representative of at least two independent experiments performed in triplicate. All quantitative data were summarized as the means ± standard deviation (SD).

[2] = test system: LPS-stimulated RAW 264.7 murine macrophage cells; test: Inhibition of NO production (nitrite, Griess reaction) in LPS-stimulated RAW 264.7 cells; assay type: cell-based; details: for IC50: Mus musculus, RAW264.7, 72 h; for NO inhibition: at ¾ IC50 concentration, 72 h
Protocol: The activation of the inflammatory process induces nitric oxide, NO, released as a second messenger. NO production can be used as the main indicator to assess inflammatory activity, which can be measured using nitrite (NO^2–) quantification (proportional to the released NO), determined through the Griess reaction. […] Inhibition percentages were calculated with respect to the increase between positive control (only LPS treated control cells) and negative control (untreated control cells).
The absorbance was referred to nitrite standard curve to determine the concentration of nitrite in the supernatant of each experimental sample. The percentage of NO production was determined, assigning 100% at the increase between negative control (untreated cells) and positive control (cells only treated with 10 μg/mL of LPS).
as §1

[3] = test system: HT29 human colorectal adenocarcinoma cell line; test: MTT cytotoxicity on HT29 cells; details: HT-29, 72 h, HT29, MTT, 72 h
Protocol: (§2) These studies were performed using the MTT assay, based on formazan dye formation and expressed as a percentage with respect to untreated control cells (100% of cell metabolism).
(§3) The effect of compounds on the cell viability was determined by the MTT method [27] (Sigma, St. Louis, MO, USA). The cytotoxicity of the compounds was detected by measuring the absorbance of MTT dye staining of cells with metabolism capacity. […] Finally, after 72 h, 100 μL of MTT solution (0.5 mg/mL) in 50% of PBS and 50% of the medium was added to each well. After 1.5 h of incubation, formazan was re-suspended in 100 μL of DMSO, and each concentration was tested in triplicate.
(§4) Experimental cytotoxicity data were fitted to a sigmoidal function (y = ymax/ (x/a)^−b) by non-linear regression. […] All shown data are representative of at least two independent experiments performed in triplicate. All quantitative data were summarized as the means ± standard deviation (SD).

[4] = test system: HepG2 human hepatocarcinome cell-line; test: MTT cytotoxicity on HepG2 cells; details: HepG2, 72 h
Protocol: as §2, §3, §4

[5] = test system: B16-F10 mouse melanoma cells; test: MTT cytotoxicity on B16-F10 cells
Protocol: as §2, §3, §4

[6] = RAW264.7, RAW 264.7, MTT, 72 h of incubation, 20% cell viability inhibition, read-out: IC20
[7] = RAW264.7, RAW 264.7, MTT, 72 h of incubation, 80% cell viability inhibition, read-out: IC80
[8] = RAW264.7, RAW 264.7, MTT, 72 h of incubation
[9] = LPS-activated RAW 264.7, 72 h of incubation

Row | SMILES | IC20 [1, 6] | IC80 [1, 7] | IC50 [1, 8] | IC50 [2, 9] | IC50 [3] | IC50 [4] | IC50 ([5]; 72 h) | IC50 ([5]; Mus musculus, B16-F10, 72 h) | NO inhibition [2] | IC50 NO [2, 9] | IC20 ([1]; RAW264.7, 72 h) | IC80 ([1]; RAW264.7, 72 h)
1 | COC(=O)c1ccc2c(c1C(=O)OC)CC[C@H]1C(C)(C)CCC[C@]21C [Compound 14] | 22.92 ± 0.13 µg/mL (≈ 66.5 µM) | 26.89 ± 0.02 µg/mL (≈ 78.1 µM) | 24.67 ± 0.04 µg/mL (≈ 71.6 µM) | 10.7 ± 1.14 µg/mL (≈ 31.1 µM) | 15.4 ± 2.72 µg/mL (≈ 44.8 µM) | 33.8 ± 0.8 µg/mL (≈ 98 µM) | 9.25 ± 0.74 µg/mL (≈ 26.9 µM) | < 10 µg/mL | – | – | – | –
2 | CC1(C)CCC[C@]2(C)c3cc(O)c(CO)cc3CC[C@@H]12 [Compound 24] | 9.09 ± 0.03 µg/mL (≈ 33.1 µM) | 20.8 ± 0.48 µg/mL (≈ 75.6 µM) | 13.94 ± 0.07 µg/mL (≈ 50.8 µM) | 15.2 ± 2.13 µg/mL (≈ 55.4 µM) | 17.4 ± 1.97 µg/mL (≈ 63.5 µM) | 24.2 ± 2.71 µg/mL (≈ 88.3 µM) | – | 10.51 ± 0.01 µg/mL (≈ 38.3 µM) | did not cause any inhibition of NO release | – | – | –
3 | CC1(C)CCC[C@]2(C)c3cc(O)c(C=O)cc3CC[C@@H]12 [Compound 23] | 5.13 ± 0.18 µg/mL (≈ 18.8 µM) | 6.8 ± 0.24 µg/mL (≈ 25 µM) | 5.87 ± 0.18 µg/mL (≈ 21.6 µM) | 3.22 ± 0.05 µg/mL (≈ 11.8 µM) | 5.19 ± 0.17 µg/mL (≈ 19.1 µM) | 8.36 ± 1.77 µg/mL (≈ 30.7 µM) | – | 4.33 ± 0.27 µg/mL (≈ 15.9 µM) | 78.48% | 3.32 ± 0.05 µg/mL (≈ 12.2 µM) | – | –
4 | Cc1c(CO)c(O)cc2c1CC[C@H]1C(C)(C)CCC[C@]21C [Compound 19] | 70.83 ± 0.28 µg/mL (≈ 246 µM) | 78.94 ± 0.28 µg/mL (≈ 274 µM) | 74.65 ± 0.17 µg/mL (≈ 259 µM) | 27.57 ± 0.2 µg/mL (≈ 95.6 µM) | 49 ± 0.72 µg/mL (≈ 170 µM) | 12.2 ± 1.78 µg/mL (≈ 42.4 µM) | – | 48.8 ± 2.79 µg/mL (≈ 169 µM) | – | – | – | –
5 | COC(=O)C1=C(C(=O)OC)C2(C)CC[C@H]3C(C)(C)CCC[C@]3(C)C2=CC1 (stereo partly shown) [Compound 15] | 43.7 ± 2.37 µg/mL (≈ 121 µM) | 83.67 ± 0.64 µg/mL (≈ 232 µM) | 64.6 ± 1.39 µg/mL (≈ 179 µM) | 7.98 ± 0.1 µg/mL (≈ 22.1 µM) | 25.3 ± 0.89 µg/mL (≈ 70.2 µM) | 58.32 ± 0.32 µg/mL (≈ 162 µM) | – | 13 ± 1.8 µg/mL (≈ 36.1 µM) | – | – | – | –
6 | COC(=O)c1c(O)cc2c(c1C)CC[C@H]1C(C)(C)CCC[C@]21C [Compound 18] | 7.32 ± 2.53 µg/mL (≈ 23.1 µM) | 20.4 ± 0.26 µg/mL (≈ 64.4 µM) | 13.1 ± 1.51 µg/mL (≈ 41.4 µM) | 31.4 ± 4.9 µg/mL (≈ 99.1 µM) | 30.7 ± 0.49 µg/mL (≈ 96.9 µM) | 13.57 ± 0.12 µg/mL (≈ 42.9 µM) | 5.96 ± 0.35 µg/mL (≈ 18.8 µM) | < 10 µg/mL | 11.06% | – | – | –
7 | Cc1c2c(cc3c1CC[C@H]1C(C)(C)CCC[C@]31C)OC(=O)C2 [Compound 5, pterolobirin H] | – | – | – | – | – | – | – | – | – | – | 34.9 ± 2.11 µg/mL (≈ 117 µM) | 64.2 ± 3.29 µg/mL (≈ 215 µM)
8 | CC1(C)CCC[C@]2(C)c3cc4c(cc3CC[C@@H]12)CC(=O)O4 [Compound 25] | 42.6 ± 0.74 µg/mL (≈ 150 µM) | 66.33 ± 0.35 µg/mL (≈ 233 µM) | 53.92 ± 0.36 µg/mL (≈ 190 µM) | 22.58 ± 0.05 µg/mL (≈ 79.4 µM) | 74.3 ± 2.19 µg/mL (≈ 261 µM) | 77.97 ± 0.72 µg/mL (≈ 274 µM) | – | 74.3 ± 2.19 µg/mL (≈ 261 µM) | 72.24% | – | – | –
9 | COC(=O)c1c(O)cc2c(c1C(=O)OC)CC[C@H]1C(C)(C)CCC[C@]21C [Compound 17] | 4.95 ± 0.13 µg/mL (≈ 13.7 µM) | 11.8 ± 2.97 µg/mL (≈ 32.7 µM) | 7.49 ± 0.86 µg/mL (≈ 20.8 µM) | 4.74 ± 1.27 µg/mL (≈ 13.2 µM) | 5.96 ± 0.55 µg/mL (≈ 16.5 µM) | 8.15 ± 0.1 µg/mL (≈ 22.6 µM) | 5.96 ± 0.55 µg/mL and 5.97 ± 0.55 µg/mL | < 10 µg/mL | 30.52% | – | – | –
